Laboratory results from patent publication US5631382A, “Fulgimide compound” (Tokuyama Corporation, priority 1994, dated 1997).

Assays:
Format in all cases: physicochemical
[1] = Wear life (T 1/2) of polymer plate in xenon fade meter, JIS L0843 and JIS B7754; conditions: time until color density decreases to one-half the initial value
Description: (§1) 0.04 Parts of fulgimide compounds shown in Table 3, 70 parts of tetraethyleneglycol dimethacrylate, 15 parts of triethyleneglycol dimethacrylate, 10 parts of glycidyl methacrylate, 5 parts of 2-hydroethylmethacrylate and 1 part of perbutyl ND as a polymerization catalyst, were sufficiently mixed together until they were completely dissolved. The mixture solution was poured into a mold constituted by a glass plate and a gasket of an ethylene/vinyl acetate copolymer, and its temperature was elevated in an air oven from 35° C. to 90° C. over a period of 20 hours to effect the polymerization. After the polymerization, the polymer was taken out from the glass mold.
(§2) The obtained polymer plate was irradiated with xenon light by using a Xenon Long-Life Fade Meter FAL-25AX-HC (output: 2.5 KW, source of light: xenon long-life arc lamp) manufactured by Suga Shikenki Co., in order to measure a maximum absorption wavelength in a state of developing color. The initial color tone was observed by eyes, and YI of the samples was measured by using a color-difference meter (Model SM-4) manufactured by Suga Shikenki Co. The wear life (T 1/2) was also measured in compliance with JIS L0843 and JIS B7754. T 1/2 is defined to be the time until the color density decreases down to one-half the initial value when the polymer plate is irradiated with light by using the fade meter.
(§3) For the purpose of comparison, the fulgimide compounds represented by the following formulas (A) to (I) were also used to prepare polymer plates to measure their properties in the same procedure as described above. [drawing 113]

[2] = Initial color of polymer plate (visual observation, YI by color-difference meter); conditions: for Initial color, visually observed: before irradiation; for Initial color, YI: color-difference meter SM-4
Description: as §1, §2, §3

[3] = Developed color of polymer plate under xenon light (color density, maximum absorption wavelength); conditions: for Color density: 0.04 parts in polymer plate; for λ max: state of developing color, polymer plate
Description: as §1, §2, §3

| SMILES | T1/2 [1] [h] | Initial color, visually observed [2] | Initial color, YI [2] | Color density [3] | λ max [3] [nm] |
| --- | --- | --- | --- | --- | --- |
| N#CN1C(=O)C2=C(C3CC3)c3ccoc3C3(C4CC5CC(C4)CC3C5)C2C1=O (stereo not drawn) [Compound 29] | 385 | colorless | 2.01 | 0.98 | 600 |
| CC(=O)N1C(=O)C2=C(C3CC3)c3cc(C)sc3C3(C4CC5CC(C4)CC3C5)C2C1=O (stereo not drawn) [Compound 4, N-Acetyl-4-cyclopropyl-6,7-dihydro-2-methylspirobenzothiophenedicarboxyimide-7,2'-tricyclo[3.3.1.1^3,7]decane] | 140 | colorless | 2.15 | 1.43 | 562 |
| COc1c(C)sc2c1C1(C3CC4CC(C3)CC1C4)C1C(=O)N(C(=O)Oc3ccccc3)C(=O)C1=C2C (stereo not drawn) [Compound 26] | 120 | colorless | 3.84 | 0.54 | 546 |
| COc1ccc(C2=C3C(=O)N(C(=O)c4ccccc4)C(=O)C3C3(c4oc5ccccc5c42)C2CC4CC3CC(C)(C4)C2)cc1 (stereo not drawn) [Compound 8, N-Benzoyl-3,4-dihydro-5'-methyl-1-(p-methoxyphenyl)spirobenzo[5,6-b:d]furandicarboxyimide-4,2-tricyclo[3.3.1.1^3,7]decane] | 110 | colorless | 3.94 | 0.98 | 541 |
| CC1=C2C(=O)N(C#N)C(=O)C2C2(c3oc(-c4ccccc4)cc31)C1CC3CC(C1)CC2C3 (stereo not drawn) [Compound 5] | 260 | colorless | 3.96 | 1.12 | 603 |
| COc1ccc(-c2cc3c(n2C)C2(C4CC5CC(C4)CC2C5)C2C(=O)N(CC#N)C(=O)C2=C3C)cc1 (stereo not drawn) [I, reference compound] | 80 | yellow | 18.89 | 0.73 | 630 |
| CCCCC12CCC(CC1)C21c2sc(C)c(CC)c2C(C2CC2)=C2C(=O)N(C(=O)c3cccc(C(F)(F)F)c3)C(=O)C21 (stereo not drawn) [Compound 17] | 140 | colorless | 3.10 | 1.10 | 610 |
| COC12CC3CC(C1)C1(c4c(c5ccccc5n4-c4ccccc4)C(C4CC4)=C4C(=O)N(C(Cl)(Cl)Cl)C(=O)C41)C(C3)C2 (stereo not drawn) [Compound 9] | 145 | colorless | 3.85 | 1.02 | 610 |
| CC12CCCC(CCC1)C21c2sc([N+](=O)[O-])cc2C(C2CC2)=C2C(=O)N(C(=O)c3c(F)c(F)c(F)c(F)c3F)C(=O)C21 (stereo not drawn) [Compound 12] | 140 | colorless | 2.25 | 1.02 | 593 |
| CCN1C(=O)C2=C(C)c3cc(-c4ccc(OC)cc4)n(-c4ccccc4)c3C3(C4CC5CC(C4)CC3C5)C2C1=O (stereo not drawn) [F, reference compound] | 80 | yellow | 19.23 | 0.75 | 600 |
| CC1=C2C(=O)N(C(=O)c3cccc(C#N)c3)C(=O)C2C2(c3c1c1c(n3C)CCCC1)C1CC3CC(F)(C1)CC2(F)C3 (stereo not drawn) [Compound 11] | 100 | colorless | 2.35 | 0.88 | 630 |
| CCC1=C2C(=O)N(C(=O)C(Cl)(Cl)Cl)C(=O)C2C2(c3sc4cc(OC)ccc4c31)C1CC3CC(Cl)(C1)CC2(Cl)C3 (stereo not drawn) [Compound 7, 3',5'-Dichloro-3,4-dihydro-1-ethyl-7-methoxy-N-trichloromethylcarbonylspirodibenzo[5,6-b:d]thiophenedicarboxyimide-4,2'-tricyclo[3.3.1.1^3,7]decane] | 100 | colorless | 2.15 | 0.85 | 550 |
| CCOC(=O)N1C(=O)C2=C(C)c3c(sc4ccccc34)C3(C4CCCC3(OC)CCC4)C2C1=O (stereo not drawn) [Compound 15] | 110 | colorless | 2.95 | 0.85 | 520 |
| O=C1C2=C(C3CC3)c3ccsc3C3(C4CC5CC(C4)CC3C5)C2C(=O)N1C(=O)c1ccccc1 (stereo not drawn) [Compound 3, N-Benzoyl-4-cyclopropyl-6,7-dihydrospirobenzothiophenedicarboxyimide-7,2'-tricyclo[3.3.1.1^3,7]decane] | 135 | colorless | 3.84 | 0.90 | 570 |
| CCOC12CCC(CC1)C21c2sc3ccccc3c2C(CC)=C2C(=O)N(S(=O)(=O)CC)C(=O)C21 (stereo not drawn) [Compound 20] | 100 | pale yellow | 4.85 | 0.95 | 548 |
| CC(=O)N1C(=O)C2=C(C3CC3)c3c(sc4c3CCCC4)C3(C4CCC3CC4)C2C1=O (stereo not drawn) [Compound 23] | 140 | colorless | 2.36 | 0.87 | 600 |
| CC1=C2C(=O)N(S(=O)(=O)c3cc(Cl)cc(Cl)c3)C(=O)C2C2(c3c1c1c(n3-c3ccccc3)CCCC1)C1CCC2CC1 (stereo not drawn) [Compound 25] | 100 | colorless | 3.26 | 0.71 | 619 |
| CC(=O)N1C(=O)C2=C(C)c3c4c(n(-c5ccccc5)c3C3(C5CCCC3CCC5)C2C1=O)CCCC4 (stereo not drawn) [Compound 16] | 100 | colorless | 3.56 | 1.05 | 625 |
| CCC1=C2C(=O)N(S(=O)(=O)O)C(=O)C2C2(c3c(OC)cc(OC)cc31)C1CC3CC(C1)CC2C3 (stereo not drawn) [Compound 27] | 100 | pale yellow | 4.68 | 0.68 | 568 |
| CCN1C(=O)C2=C(C)c3ccsc3C3(C4CC5CC(C4)CC3C5)C2C1=O (stereo not drawn) [A, reference compound] | 100 | yellow | 10.03 | 0.68 | 540 |
| CC1=C2C(=O)N(C#N)C(=O)C2C2(c3occc31)C1CC3CC(C1)CC2C3 (stereo not drawn) [Compound 31] | 265 | colorless | 2.00 | 0.65 | 580 |
| O=C1C2=C(c3ccccc3)c3c(oc4ccccc34)C3(C4CCC3CC4)C2C(=O)N1C(Cl)(Cl)Cl (stereo not drawn) [Compound 21] | 115 | colorless | 2.95 | 0.95 | 540 |
| CCOC(=O)CN1C(=O)C2=C(C)c3cc(-c4ccc(OC)cc4)n(C)c3C3(C4CC5CC(C4)CC3C5)C2C1=O (stereo not drawn) [H, reference compound] | 80 | yellow | 19.52 | 0.78 | 620 |
| CSc1cc2c(n1C)C1(C3C(=O)N(C(F)(F)F)C(=O)C3=C2C(C)C)C2(C)CCC1(C)CC2 (stereo not drawn) [Compound 19] | 110 | colorless | 3.05 | 0.81 | 603 |
| COc1ccc(-c2cc3c(o2)C2(C4CC5CC(C4)CC2C5)C2C(=O)N(CC#N)C(=O)C2=C3C)cc1 (stereo not drawn) [C, reference compound] | 95 | yellow | 17.56 | 0.77 | 560 |
| CC1=C2C(=O)N(C#N)C(=O)C2C2(c3sccc31)C1CC3CC(C1)CC2C3 (stereo not drawn) [Compound 28] | 270 | colorless | 2.06 | 0.56 | 604 |
| CC(=O)N1C(=O)C2=C(C)c3ccsc3C3(C4CC5CC(C4)CC3C5)C2C1=O (stereo not drawn) [Compound 32] | 105 | colorless | 2.11 | 0.70 | 550 |
